Measurements reported in article PMC5766581, “NF-κB inducing kinase is a therapeutic target for systemic lupus erythematosus” (Nature Communications, 2018).

Tests used:
Assay in all cases: SelectScreen kinase panel
Format in all cases: biochemical
[1] = molecular target: T1, Aurora_A (Homo sapiens, UniProt O14965)
T1 construct: purchased Invitrogen / ThermoFisher SelectScreen
How it was run: (§1)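 Invitrogen carries out the selectivity screen with its SelectScreen platform, applying either activity assays (Z′-LYTE peptide phosphorylation, Adapta ADP measurement) or a LanthaScreen ATP-pocket binding assay, per kinase. Results are averaged % inhibition.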

[2] = molecular target: T2, CDK1/cyclinB (Homo sapiens, UniProt P06493)
T2 construct: purchased Invitrogen / ThermoFisher SelectScreen
How it was run: as §1

[3] = molecular target: T3, CHK1 (Homo sapiens, UniProt O14757)
T3 construct: purchased Invitrogen / ThermoFisher SelectScreen
How it was run: as §1

[4] = molecular target: T4, CSF1R (Homo sapiens, UniProt P07333)
T4 construct: purchased Invitrogen / ThermoFisher SelectScreen
How it was run: as §1

[5] = molecular target: T5, CaMKI (Homo sapiens, UniProt Q14012)
T5 construct: purchased Invitrogen / ThermoFisher SelectScreen
How it was run: as §1

[6] = molecular target: T6, CamKII_alpha (Homo sapiens, UniProt Q9UQM7)
T6 construct: purchased Invitrogen / ThermoFisher SelectScreen
How it was run: as §1

[7] = molecular target: T7, DAPK1 (Homo sapiens, UniProt P53355)
T7 construct: purchased Invitrogen / ThermoFisher SelectScreen
How it was run: as §1

[8] = molecular target: T8, DNA-PK (Homo sapiens, UniProt P78527)
T8 construct: purchased Invitrogen / ThermoFisher SelectScreen
How it was run: as §1

[9] = molecular target: T9, EGFR (Homo sapiens, UniProt P00533)
T9 construct: purchased Invitrogen / ThermoFisher SelectScreen
How it was run: as §1

[10] = molecular target: T10, EphA1 (Homo sapiens, UniProt P21709)
T10 construct: purchased Invitrogen / ThermoFisher SelectScreen
How it was run: as §1

[11] = molecular target: T11, EphB1 (Homo sapiens, UniProt P54762)
T11 construct: purchased Invitrogen / ThermoFisher SelectScreen
How it was run: as §1

[12] = molecular target: T12, Flt3 (Homo sapiens, UniProt P36888)
T12 construct: purchased Invitrogen / ThermoFisher SelectScreen
How it was run: as §1

[13] = molecular target: T13, GSK3_beta (Homo sapiens, UniProt P49841)
T13 construct: purchased Invitrogen / ThermoFisher SelectScreen
How it was run: as §1

[14] = molecular target: T14, HIPK2 (Homo sapiens, UniProt Q9H2X6)
T14 construct: purchased Invitrogen / ThermoFisher SelectScreen
How it was run: as §1

[15] = molecular target: T15, HIPK4 (Homo sapiens, UniProt Q8NE63)
T15 construct: purchased Invitrogen / ThermoFisher SelectScreen
How it was run: as §1

[16] = molecular target: T16, Lck (Homo sapiens, UniProt P06239)
T16 construct: purchased Invitrogen / ThermoFisher SelectScreen
How it was run: as §1

[17] = molecular target: T17, MAP4K4 (Homo sapiens, UniProt O95819)
T17 construct: purchased Invitrogen / ThermoFisher SelectScreen
How it was run: as §1

[18] = molecular target: T18, MELK (Homo sapiens, UniProt Q14680)
T18 construct: purchased Invitrogen / ThermoFisher SelectScreen
How it was run: as §1

[19] = molecular target: T19, MSK1 (Homo sapiens, UniProt O75582)
T19 construct: purchased Invitrogen / ThermoFisher SelectScreen
How it was run: as §1

[20] = molecular target: T20, MST1 (Homo sapiens, UniProt Q13043)
T20 construct: purchased Invitrogen / ThermoFisher SelectScreen
How it was run: as §1

[21] = molecular target: T21, MST4 (Homo sapiens, UniProt Q9P289)
T21 construct: purchased Invitrogen / ThermoFisher SelectScreen
How it was run: as §1

[22] = molecular target: T22, P38_delta (Homo sapiens, UniProt O15264)
T22 construct: purchased Invitrogen / ThermoFisher SelectScreen
How it was run: as §1

[23] = molecular target: T23, PAK4 (Homo sapiens, UniProt O96013)
T23 construct: purchased Invitrogen / ThermoFisher SelectScreen
How it was run: as §1

[24] = molecular target: T24, PDGFR_alpha (Homo sapiens, UniProt P16234)
T24 construct: purchased Invitrogen / ThermoFisher SelectScreen
How it was run: as §1

[25] = molecular target: T25, PDK1 (Homo sapiens, UniProt O15530)
T25 construct: purchased Invitrogen / ThermoFisher SelectScreen
How it was run: as §1

[26] = molecular target: T26, PKG1_alpha (Homo sapiens, UniProt Q13976)
T26 construct: purchased Invitrogen / ThermoFisher SelectScreen
How it was run: as §1

[27] = molecular target: T27, PrKX (Homo sapiens, UniProt P51817)
T27 construct: purchased Invitrogen / ThermoFisher SelectScreen
How it was run: as §1

[28] = molecular target: T28, SGK3 (Homo sapiens, UniProt Q96BR1)
T28 construct: purchased Invitrogen / ThermoFisher SelectScreen
How it was run: as §1

[29] = molecular target: T29, SIK2 (Homo sapiens, UniProt Q9H0K1)
T29 construct: purchased Invitrogen / ThermoFisher SelectScreen
How it was run: as §1

[30] = molecular target: T30, Src (Homo sapiens, UniProt P12931)
T30 construct: purchased Invitrogen / ThermoFisher SelectScreen
How it was run: as §1

[31] = molecular target: T31, Tie2 (Homo sapiens, UniProt Q02763)
T31 construct: purchased Invitrogen / ThermoFisher SelectScreen
How it was run: as §1

[32] = molecular target: T32, ZAP-70 (Homo sapiens, UniProt P43403)
T32 construct: purchased Invitrogen / ThermoFisher SelectScreen
How it was run: as §1

[33] = molecular target: T33, mTOR (Homo sapiens, UniProt P42345)
T33 construct: purchased Invitrogen / ThermoFisher SelectScreen
How it was run: as §1

T31 sequence (Q02763 23-1124): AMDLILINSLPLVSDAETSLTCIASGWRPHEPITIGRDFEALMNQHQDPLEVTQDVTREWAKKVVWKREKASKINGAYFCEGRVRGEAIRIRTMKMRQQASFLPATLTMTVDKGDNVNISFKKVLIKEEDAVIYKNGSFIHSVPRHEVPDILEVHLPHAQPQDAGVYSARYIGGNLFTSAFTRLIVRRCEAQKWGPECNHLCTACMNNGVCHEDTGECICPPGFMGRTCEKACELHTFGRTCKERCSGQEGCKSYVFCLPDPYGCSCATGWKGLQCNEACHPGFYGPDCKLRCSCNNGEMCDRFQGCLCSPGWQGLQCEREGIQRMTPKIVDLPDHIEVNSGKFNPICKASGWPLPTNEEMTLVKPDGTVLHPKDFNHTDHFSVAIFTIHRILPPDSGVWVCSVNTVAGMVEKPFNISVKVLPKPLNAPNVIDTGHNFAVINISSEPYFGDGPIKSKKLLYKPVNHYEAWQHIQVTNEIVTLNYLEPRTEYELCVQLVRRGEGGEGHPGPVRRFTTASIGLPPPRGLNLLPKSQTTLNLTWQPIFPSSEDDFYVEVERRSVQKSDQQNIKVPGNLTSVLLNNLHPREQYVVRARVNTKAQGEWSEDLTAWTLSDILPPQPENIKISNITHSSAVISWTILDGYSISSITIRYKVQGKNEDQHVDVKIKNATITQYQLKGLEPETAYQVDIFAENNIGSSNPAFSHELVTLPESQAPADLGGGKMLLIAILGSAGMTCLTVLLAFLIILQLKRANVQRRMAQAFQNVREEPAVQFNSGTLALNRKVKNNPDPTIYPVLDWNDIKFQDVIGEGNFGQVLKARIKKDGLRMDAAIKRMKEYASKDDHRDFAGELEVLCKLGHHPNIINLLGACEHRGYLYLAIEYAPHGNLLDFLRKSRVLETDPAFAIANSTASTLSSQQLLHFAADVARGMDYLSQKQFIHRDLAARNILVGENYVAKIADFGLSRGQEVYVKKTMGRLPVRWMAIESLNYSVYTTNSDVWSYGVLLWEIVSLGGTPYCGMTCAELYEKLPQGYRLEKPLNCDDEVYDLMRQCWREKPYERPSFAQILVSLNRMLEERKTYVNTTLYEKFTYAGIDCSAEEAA
T27 sequence (P51817 whole entry): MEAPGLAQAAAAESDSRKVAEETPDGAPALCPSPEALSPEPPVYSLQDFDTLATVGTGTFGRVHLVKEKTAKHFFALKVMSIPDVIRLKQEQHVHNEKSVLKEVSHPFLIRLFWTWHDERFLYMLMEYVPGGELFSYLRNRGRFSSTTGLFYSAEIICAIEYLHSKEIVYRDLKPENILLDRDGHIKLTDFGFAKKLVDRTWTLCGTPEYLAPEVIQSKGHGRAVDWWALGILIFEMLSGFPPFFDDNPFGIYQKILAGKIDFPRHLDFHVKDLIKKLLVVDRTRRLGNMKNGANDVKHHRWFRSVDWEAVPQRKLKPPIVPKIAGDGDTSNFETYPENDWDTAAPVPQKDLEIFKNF
T3 sequence (O14757 whole entry): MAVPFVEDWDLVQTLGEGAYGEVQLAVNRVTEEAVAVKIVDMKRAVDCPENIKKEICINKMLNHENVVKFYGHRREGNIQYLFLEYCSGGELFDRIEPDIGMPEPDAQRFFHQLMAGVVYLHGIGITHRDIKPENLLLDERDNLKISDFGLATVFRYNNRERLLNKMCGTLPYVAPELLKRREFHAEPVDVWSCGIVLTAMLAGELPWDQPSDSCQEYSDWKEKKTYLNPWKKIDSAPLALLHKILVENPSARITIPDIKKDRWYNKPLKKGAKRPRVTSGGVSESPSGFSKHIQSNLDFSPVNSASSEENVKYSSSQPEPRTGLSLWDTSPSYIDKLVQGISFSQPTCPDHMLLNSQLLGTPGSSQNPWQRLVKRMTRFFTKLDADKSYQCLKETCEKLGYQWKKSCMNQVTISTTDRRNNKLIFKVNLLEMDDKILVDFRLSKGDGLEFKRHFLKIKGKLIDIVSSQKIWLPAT
T24 sequence (P16234 24-1089): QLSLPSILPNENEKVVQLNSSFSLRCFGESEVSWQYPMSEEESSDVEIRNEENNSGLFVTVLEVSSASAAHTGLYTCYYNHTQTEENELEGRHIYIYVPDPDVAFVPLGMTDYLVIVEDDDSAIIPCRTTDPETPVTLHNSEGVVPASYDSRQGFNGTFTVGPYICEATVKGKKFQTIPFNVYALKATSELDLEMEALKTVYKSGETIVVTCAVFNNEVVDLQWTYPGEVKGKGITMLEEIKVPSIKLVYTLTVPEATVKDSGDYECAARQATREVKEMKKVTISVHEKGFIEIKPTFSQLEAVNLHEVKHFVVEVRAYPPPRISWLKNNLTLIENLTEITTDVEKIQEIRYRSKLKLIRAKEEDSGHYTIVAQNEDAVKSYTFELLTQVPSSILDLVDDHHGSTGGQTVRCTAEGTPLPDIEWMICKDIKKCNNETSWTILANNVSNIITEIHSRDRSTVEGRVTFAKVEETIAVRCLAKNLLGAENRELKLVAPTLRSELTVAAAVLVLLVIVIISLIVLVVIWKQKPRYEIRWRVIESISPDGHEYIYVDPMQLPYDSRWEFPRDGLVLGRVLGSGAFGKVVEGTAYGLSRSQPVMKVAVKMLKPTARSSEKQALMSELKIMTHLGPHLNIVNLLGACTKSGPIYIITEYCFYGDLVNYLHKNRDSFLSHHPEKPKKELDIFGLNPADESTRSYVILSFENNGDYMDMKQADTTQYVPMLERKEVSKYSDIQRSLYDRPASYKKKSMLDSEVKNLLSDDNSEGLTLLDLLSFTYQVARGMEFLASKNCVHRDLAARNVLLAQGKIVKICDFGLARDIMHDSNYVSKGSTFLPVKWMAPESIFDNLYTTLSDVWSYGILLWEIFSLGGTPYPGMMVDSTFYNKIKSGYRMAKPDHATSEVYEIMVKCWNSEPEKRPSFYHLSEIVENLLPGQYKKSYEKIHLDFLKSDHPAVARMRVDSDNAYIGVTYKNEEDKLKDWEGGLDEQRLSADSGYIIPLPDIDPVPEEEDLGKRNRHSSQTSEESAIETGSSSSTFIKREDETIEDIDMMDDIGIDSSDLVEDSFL
T17 sequence (O95819 whole entry): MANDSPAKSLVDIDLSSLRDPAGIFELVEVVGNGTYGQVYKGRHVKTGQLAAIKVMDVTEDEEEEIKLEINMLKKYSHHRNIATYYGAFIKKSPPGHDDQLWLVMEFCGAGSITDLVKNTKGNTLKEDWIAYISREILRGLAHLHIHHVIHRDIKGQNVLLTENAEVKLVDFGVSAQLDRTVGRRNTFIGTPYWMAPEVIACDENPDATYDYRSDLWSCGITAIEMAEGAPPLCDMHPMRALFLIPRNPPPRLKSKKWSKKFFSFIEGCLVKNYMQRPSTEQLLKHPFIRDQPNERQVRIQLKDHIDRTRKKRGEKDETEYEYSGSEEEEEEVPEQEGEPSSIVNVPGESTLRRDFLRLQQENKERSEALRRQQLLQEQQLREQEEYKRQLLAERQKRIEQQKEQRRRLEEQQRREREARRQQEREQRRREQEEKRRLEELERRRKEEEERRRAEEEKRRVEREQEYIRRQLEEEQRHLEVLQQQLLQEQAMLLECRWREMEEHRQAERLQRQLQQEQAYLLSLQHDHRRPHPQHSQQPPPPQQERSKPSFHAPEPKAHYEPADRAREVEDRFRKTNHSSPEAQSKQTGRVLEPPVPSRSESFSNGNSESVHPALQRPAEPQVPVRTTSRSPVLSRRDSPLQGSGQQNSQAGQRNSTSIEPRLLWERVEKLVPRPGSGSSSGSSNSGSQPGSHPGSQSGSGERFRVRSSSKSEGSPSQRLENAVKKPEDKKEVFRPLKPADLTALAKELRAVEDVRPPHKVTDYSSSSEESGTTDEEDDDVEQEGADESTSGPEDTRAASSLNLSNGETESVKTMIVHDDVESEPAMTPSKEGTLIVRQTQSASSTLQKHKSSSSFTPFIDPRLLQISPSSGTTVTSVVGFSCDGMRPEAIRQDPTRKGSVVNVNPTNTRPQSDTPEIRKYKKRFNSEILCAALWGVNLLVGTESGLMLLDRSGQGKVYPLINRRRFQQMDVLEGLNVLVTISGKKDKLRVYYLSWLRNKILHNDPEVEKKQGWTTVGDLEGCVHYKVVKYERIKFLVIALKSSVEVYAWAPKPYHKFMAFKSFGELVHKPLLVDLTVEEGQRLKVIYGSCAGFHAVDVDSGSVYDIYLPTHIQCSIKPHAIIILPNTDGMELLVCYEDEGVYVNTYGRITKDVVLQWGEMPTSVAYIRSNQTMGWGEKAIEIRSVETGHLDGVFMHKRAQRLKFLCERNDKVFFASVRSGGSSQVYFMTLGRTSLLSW
T25 sequence (O15530 whole entry): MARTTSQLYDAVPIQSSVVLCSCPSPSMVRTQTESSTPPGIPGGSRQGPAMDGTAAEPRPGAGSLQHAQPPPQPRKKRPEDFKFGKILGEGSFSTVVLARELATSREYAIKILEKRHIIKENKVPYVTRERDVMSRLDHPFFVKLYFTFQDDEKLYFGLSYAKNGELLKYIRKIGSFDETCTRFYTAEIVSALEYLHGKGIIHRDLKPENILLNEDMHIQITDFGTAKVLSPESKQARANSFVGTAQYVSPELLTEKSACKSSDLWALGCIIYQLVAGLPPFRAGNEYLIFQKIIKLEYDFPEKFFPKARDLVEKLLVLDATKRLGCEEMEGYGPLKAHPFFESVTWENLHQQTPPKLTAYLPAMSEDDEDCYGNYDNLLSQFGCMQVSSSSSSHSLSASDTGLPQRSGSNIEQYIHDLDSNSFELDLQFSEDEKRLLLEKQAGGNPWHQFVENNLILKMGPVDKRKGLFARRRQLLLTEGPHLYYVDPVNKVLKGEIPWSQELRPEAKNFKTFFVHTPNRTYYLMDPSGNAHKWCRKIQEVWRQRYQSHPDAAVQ

## COc1cc(C(N)=O)nc(-c2cccc(C#C[C@]3(O)CCN(C)C3=O)c2)c1 [NIK SMI1]
[1]
  inhibition at 1 µM: 1%
[2]
  inhibition at 1 µM: 8.5%
[3]
  inhibition at 1 µM: 14%
[4]
  inhibition at 1 µM: -11%
[5]
  inhibition at 1 µM: 18.3%
[6]
  inhibition at 1 µM: 17.5%
[7]
  inhibition at 1 µM: 15.1%
[8]
  inhibition at 1 µM: -4%
[9]
  inhibition at 1 µM: -11.5%
[10]
  inhibition at 1 µM: 2.5%
[11]
  inhibition at 1 µM: 7%
[12]
  inhibition at 1 µM: 13.5%
[13]
  inhibition at 1 µM: 5%
[14]
  inhibition at 1 µM: 17.5%
[15]
  inhibition at 1 µM: 3%
[16]
  inhibition at 1 µM: 0.5%
[17]
  inhibition at 1 µM: 45.5%
[18]
  inhibition at 1 µM: 26.5%
[19]
  inhibition at 1 µM: 7.5%
[20]
  inhibition at 1 µM: 11.5%
[21]
  inhibition at 1 µM: 33.5%
[22]
  inhibition at 1 µM: 12.5%
[23]
  inhibition at 1 µM: 64%
[24]
  inhibition at 1 µM: -4.5%
[25]
  inhibition at 1 µM: -0.5%
[26]
  inhibition at 1 µM: 14.5%
[27]
  inhibition at 1 µM: 11%
[28]
  inhibition at 1 µM: -0.5%
[29]
  inhibition at 1 µM: 5.5%
[30]
  inhibition at 1 µM: -1.5%
[31]
  inhibition at 1 µM: 6%
[32]
  inhibition at 1 µM: 17%
[33]
  inhibition at 1 µM: -1%
